Results reported in patent US20230116972A1, “CD38 MODULATORS AND METHODS OF USE THEREOF” (Cytokinetics, Inc., priority 2021, published 2023).

Key:
[1] = biological target: T1, endogenous CD38 in HL60 cells (Homo sapiens, UniProt P28907); assay: cellular CD38 assay in HL60 cells (cellular NAD levels); assay type: cell-based; details: all-trans retinoic acid, 24 hours, read-out: hCD38 HL60 ATRA NAD Cell Diaphorase IC50
T1 construct: endogenous in cells; host or cells: HL60 (leukemic cells, treated with all-trans retinoic acid)
T1 sequence (P28907 1-300): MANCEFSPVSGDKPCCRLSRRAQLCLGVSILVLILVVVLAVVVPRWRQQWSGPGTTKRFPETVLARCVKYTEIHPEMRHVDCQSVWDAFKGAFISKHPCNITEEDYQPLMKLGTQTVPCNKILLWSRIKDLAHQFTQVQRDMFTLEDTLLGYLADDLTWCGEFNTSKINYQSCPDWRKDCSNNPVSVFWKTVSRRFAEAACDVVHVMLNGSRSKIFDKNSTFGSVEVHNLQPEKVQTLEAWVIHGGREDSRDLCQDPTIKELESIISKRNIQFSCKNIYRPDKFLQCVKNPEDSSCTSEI
In short: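 Endogenous CD38 inhibition is inferred from NAD levels in HL60 cells after 24 h compound exposure at 20000 cells per well. A lytic cycling readout (0.2 U/mL diaphorase, 0.8 U/mL alcohol dehydrogenase, resazurin, FMN, ethanol, 0.2% Triton X-100, Tris/EDTA pH 8.4) ran 60 min at ambient temperature. Resorufin fluorescence was read at 540/590 nm.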

human CD38 = biological target: T2, human CD38 (Homo sapiens, UniProt P28907); assay: human recombinant CD38 enzyme assay (hydrolysis of NAD+); assay type: biochemical; details: human recombinant CD38, 0.4 nM enzyme, 62.5 μM NAD+; read-out: hCD38 BioChem IC50
T2 sequence (P28907 1-300): T1 sequence (P28907 1-300)
In short: (§1)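 Residual substrate after a one-hour room-temperature incubation of recombinant CD38 with NAD+ and test compound is measured by an ADH/diaphorase coupled resorufin signal (540 nm excitation, 590 nm emission); reduced NAD+ consumption reflects inhibition.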

mouse CD38 = biological target: T3, mouse CD38 (Mus musculus, UniProt P56528); assay: mouse recombinant CD38 enzyme assay (hydrolysis of NAD+); assay type: biochemical; details: read-out: mCD38 BioChem IC50
T3 sequence (P56528 1-304): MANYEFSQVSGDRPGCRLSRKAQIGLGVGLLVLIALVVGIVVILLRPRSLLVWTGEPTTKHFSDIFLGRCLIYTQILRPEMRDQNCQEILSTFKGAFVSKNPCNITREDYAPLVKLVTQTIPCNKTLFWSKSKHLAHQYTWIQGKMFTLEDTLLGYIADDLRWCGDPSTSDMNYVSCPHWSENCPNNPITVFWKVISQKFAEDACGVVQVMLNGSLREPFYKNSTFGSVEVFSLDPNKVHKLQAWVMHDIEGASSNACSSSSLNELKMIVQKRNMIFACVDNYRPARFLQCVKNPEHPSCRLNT
In short: as §1

IC50 [1]	IC50 (human CD38)	IC50 (mouse CD38)	Compound
1400 nM	17 nM	1 nM	Cc1cc(C(=O)NC2CC3(C2)CC(F)(F)C3)nc(-c2cncn2C)n1 [Compound 124, N-(6,6-difluorospiro[3.3]heptan-2-yl)-6-methyl-2-(1-methyl-1H-imidazol-5-yl)pyrimidine-4-carboxamide]
2480 nM	19 nM	4 nM	COc1cc(C(=O)N[C@H]2CC[C@H](OC)CC2)nc(-n2ccnc2)n1 [Compound 125, 2-(1H-imidazol-1-yl)-6-methoxy-N-((1r,4r)-4-methoxycyclohexyl)pyrimidine-4-carboxamide]
335 nM	2 nM	2 nM	COc1cc(C(=O)Nc2ccc(C(F)F)nc2)nc(-n2ccnc2)n1 [Compound 127, N-(6-(difluoromethyl)pyridin-3-yl)-2-(1H-imidazol-1-yl)-6-methoxypyrimidine-4-carboxamide]
928 nM	9 nM	1 nM	COc1cc(C(=O)N[C@H]2CC[C@H](OC)CC2)nc(-c2cncn2C)n1 [Compound 128, 6-methoxy-N-((1r,4r)-4-methoxycyclohexyl)-2-(1-methyl-1H-imidazol-5-yl)pyrimidine-4-carboxamide]
267 nM	2 nM	1 nM	COc1cc(C(=O)Nc2ccc(C(F)F)nc2)nc(-c2cncn2C)n1 [Compound 129, N-(6-(difluoromethyl)pyridin-3-yl)-6-methoxy-2-(1-methyl-1H-imidazol-5-yl)pyrimidine-4-carboxamide]
10300 nM	488 nM	44 nM	COc1cc(C(=O)N[C@H]2CC[C@H](OC)CC2)nc(-c2cncs2)n1 [Compound 130, 6-methoxy-N-((1r,4r)-4-methoxycyclohexyl)-2-(thiazol-5-yl)pyrimidine-4-carboxamide]
2910 nM	66 nM	23 nM	COc1cc(C(=O)Nc2ccc(C(F)F)nc2)nc(-c2cncs2)n1 [Compound 131, N-(6-(difluoromethyl)pyridin-3-yl)-6-methoxy-2-(thiazol-5-yl)pyrimidine-4-carboxamide]
5560 nM	115 nM	55 nM	Cc1cc(C(=O)Nc2ccc(C(F)F)nc2)nc(-c2cncs2)c1 [Compound 132, N-(6-(difluoromethyl)pyridin-3-yl)-4-methyl-6-(thiazol-5-yl)picolinamide]
3020 nM	37 nM	5 nM	CC(C)(O)[C@H]1CC[C@H](NC(=O)c2cccc(-n3ccnc3)n2)CC1 [Compound 134, N-((1r,4r)-4-(2-Hydroxypropan-2-yl)cyclohexyl)-6-(1H-imidazol-1-yl)picolinamide]
1320 nM	76 nM	15 nM	O=C(NC1CC2C(C1)C2(F)F)c1cccc(-n2ccnc2)n1 (stereo not drawn) [Compound 135, N-(6,6-difluorobicyclo[3.1.0]hexan-3-yl)-6-(1H-imidazol-1-yl)picolinamide]
1540 nM	23 nM	6 nM	O=C(NC1CCC(F)(F)CC1)c1cccc(-n2ccnc2)n1 [Compound 136, N-(4,4-difluorocyclohexyl)-6-(1H-imidazol-1-yl)picolinamide]
867 nM	8 nM	7 nM	Cc1ccc(NC(=O)c2cc(C(F)(F)F)nc(-n3ccnc3)n2)cn1 [Compound 137, 2-(1H-imidazol-1-yl)-N-(6-methylpyridin-3-yl)-6-(trifluoromethyl)pyrimidine-4-carboxamide]
3010 nM	73 nM	25 nM	O=C(N[C@H]1CC[C@H](C(F)F)CC1)c1cc(C(F)(F)F)nc(-n2ccnc2)n1 [Compound 138, N-((1r,4r)-4-(difluoromethyl)cyclohexyl)-2-(1H-imidazol-1-yl)-6-(trifluoromethyl)pyrimidine-4-carboxamide]
129 nM	3 nM	14 nM	O=C(Nc1ccc(C(F)F)nc1)c1nccc(-n2ccnc2)n1 [Compound 144, N-(6-(difluoromethyl)pyridin-3-yl)-4-(1H-imidazol-1-yl)pyrimidine-2-carboxamide]
1700 nM	62 nM	23 nM	C[C@H]1CC[C@H](NC(=O)c2nccc(-n3ccnc3)n2)CC1 [Compound 146, 4-(1H-imidazol-1-yl)-N-((1r,4r)-4-methylcyclohexyl)pyrimidine-2-carboxamide]
151 nM	2 nM	6 nM	Cn1cncc1-c1ccnc(C(=O)Nc2ccc(C(F)F)nc2)n1 [Compound 147, N-(6-(difluoromethyl)pyridin-3-yl)-4-(1-methyl-1H-imidazol-5-yl)pyrimidine-2-carboxamide]
1380 nM	43 nM	13 nM	Cn1cncc1-c1ccnc(C(=O)N[C@H]2CC[C@H](C)CC2)n1 [Compound 149, 4-(1-methyl-1H-imidazol-5-yl)-N-((1r,4r)-4-methylcyclohexyl)pyrimidine-2-carboxamide]
1970 nM	14 nM	1 nM	CO[C@H]1CC[C@H](NC(=O)c2cc(C(F)(F)F)nc(-c3cncn3C)n2)CC1 [Compound 151, N-((1r,4r)-4-methoxycyclohexyl)-2-(1-methyl-1H-imidazol-5-yl)-6-(trifluoromethyl)pyrimidine-4-carboxamide]
2350 nM	13 nM	1 nM	Cn1cncc1-c1nc(C(=O)N[C@H]2CC[C@H](C(F)F)CC2)cc(C(F)(F)F)n1 [Compound 152, N-((1r,4r)-4-(difluoromethyl)cyclohexyl)-2-(1-methyl-1H-imidazol-5-yl)-6-(trifluoromethyl)pyrimidine-4-carboxamide]
3130 nM	25 nM	2 nM	Cn1cncc1-c1nc(C(=O)N[C@H]2CC[C@H](C)CC2)cc(C(F)(F)F)n1 [Compound 153, 2-(1-methyl-1H-imidazol-5-yl)-N-((1r,4r)-4-methylcyclohexyl)-6-(trifluoromethyl)pyrimidine-4-carboxamide]
3150 nM	11 nM	1 nM	Cn1cncc1-c1nc(C(=O)NC2CC3(C2)CC(F)(F)C3)cc(C(F)(F)F)n1 [Compound 154, N-(6,6-difluorospiro[3.3]heptan-2-yl)-2-(1-methyl-1H-imidazol-5-yl)-6-(trifluoromethyl)pyrimidine-4-carboxamide]
2300 nM	24 nM	1 nM	COCCO[C@H]1CC[C@H](NC(=O)c2cc(C)nc(-c3cncn3C)n2)CC1 [Compound 155, N-((1r,4r)-4-(2-methoxyethoxy)cyclohexyl)-6-methyl-2-(1-methyl-1H-imidazol-5-yl)pyrimidine-4-carboxamide]
2300 nM	30 nM	4 nM	COCCO[C@H]1CC[C@H](NC(=O)c2cc(C)nc(-n3ccnc3)n2)CC1 [Compound 156, 2-(1H-imidazol-1-yl)-N-((1r,4r)-4-(2-methoxyethoxy)cyclohexyl)-6-methylpyrimidine-4-carboxamide]
7230 nM	121 nM	48 nM	COCCO[C@H]1CC[C@H](NC(=O)c2cc(C(F)(F)F)nc(-n3ccnc3)n2)CC1 [Compound 157, 2-(1H-imidazol-1-yl)-N-((1r,4r)-4-(2-methoxyethoxy)cyclohexyl)-6-(trifluoromethyl)pyrimidine-4-carboxamide]
